# Measured values reported in patent publication US20110200693A1, “INCREASING THE EFFICIENCY OF UTILIZATION OF INGESTED CREATINE” (priority 2007, published 2011).
# Legend:
# [1] = Plasma creatine kinetics after a single ingestion of 2 g creatine (one-open compartmental model); type: in vivo, human; conditions: 2 g creatine oral, not influenced by the form ingested
# Procedure: The health status questionnaire was filled in again.
# Venous blood was collected on heparin as an anticoagulant. The tubes were placed immediately on ice and centrifuged at 3000 g for 6 min at 4° C. […] NaOH 0.1M (90 μL) was added to supernatant (300 μL) to obtain a pH value of about 7.8. Samples were stored at −20° C.
# Using a Marquardt algorithm, all kinetics were fitted with the following equation: […]
# This equation corresponds to a one-open compartmental model in which ka, kel and tlag are the primary parameters. Knowing their value, new kinetic parameters of plasma creatine were calculated:
# Since the bioavailability (F) may not be measured, only the apparent volume of distribution and the apparent clearance can be estimated:
# Vd: the apparent volume of distribution (Vd=V/F, L)
# [2] = doses from 8 g/d to 21 g/d during 1 to 14 days; cited from earlier work
smiles,measurement,setting,value
CN(CC(=O)O)C(=N)N [creatine],apparent volume of distribution relative to body mass,[1],about 75 % of body mass
same,fraction of ingested creatine excreted in urine,[2],33 to 77 % of the original dose
